Patent US12096770B2, “Method for preparing an insect repellent agent” (CENTRE NATIONAL DE LA RECHERCHE SCIENTIFIQUE, priority 2019, dated 2024)
In brackets after ≈: the same amount, converted by molar mass. Several values for one entry are separate records, joined by “and”; a condition that tells them apart may be missing. Equal values may be shown once. Values belong to the molecule of their own block, whether it stands above or below them.

Assays:
Aedes albopictus = test: Behavioural (blood-feeding) repellency test on tiger mosquitoes with feeders covered by pig intestinal skin; format: in vivo; details: for % Repellency: 1 hour, relative to EtOH negative control, mean ± standard deviation of 16 replicates; for effect of added compound on repellent activity of PMD: added to commercial cis/trans PMD 75/25 at 200 mg/m^2 in EtOH
Method: Testing was performed as to the activity of the compositions obtained by the method according to the invention on the behaviour of the tiger mosquito, Aedes albopictus.
The behavioural tests were carried out at the Montpellier Vectopôle, which is a research centre that collaborates with the WHO for the evaluation of insecticides in public health.
The tests were carried out on mosquitoes aged 5 to 9 days old after their evolution from pupae to adult.
In preparation for the experiment, the mosquitoes were […] on the day prior thereto, in order to promote their appetite for the test to occur the subsequent day.
Each cup contains a damp cotton. The female mosquitoes were removed from the cage making use of a tube that enables aspiration thereof. They were then introduced into each experiment cup (10 mosquitoes per cup).
The tests were carried out on plexiglass racks serving as supports for glass bells known as feeders. The latter are connected to each other by plastic pipes wherein water circulates at 37° C.
Pig intestinal skin was used to mimic human skin in the experiment. The pieces of intestinal skin are positioned and stretched over the feeders.
The repellent is diluted in ethyl alcohol (aka ethanol or EtOH) and is deposited on the skin using a micropipette and then spread over the entire surface. […] If the composition tested is a mixture of at least two compounds, one of which is PMD, the said composition is diluted in ethanol until 0.02036 mg/μL of PMD is obtained.
The feeders are turned over, then 300 μL of sheep blood are placed in each feeder. The cups are inserted under each feeder.
Polystyrene plates are inserted between the lines of repellent so as to avoid possible interactions of odours. The duration of the experiment is one hour. The cups are then placed in a freezer at −20° C. for a period of 40 minutes. After freezing, the contents of one cup are placed between two sheets of paper, with the entirety thereof then being crushed with a plexiglass plate. The counting of the blood-fed (engorged) mosquitoes is done based on the number of red dots on the sheet of paper. The results are expressed as a percentage of repellency (100% −X% of blood-feeding). The percentage of blood-feeding is defined in relation to the EtOH negative control. DEET and commercial cis/trans PMD 75/25 at 200 mg/m^2 were used as positive controls.
The results obtained were statistically analysed using R software (R Development Core Team. R: A language and environment for statistical computing. R Foundation for Statistical Computing, Vienna, Austria. ISBN 3-900051-07-0, 2013) and represent the mean of 16 replicates. The percentage repellency values are presented as a mean±standard deviation. The R software also makes it possible to compare two percentage repellency values by means of calculating the quantity p. This quantity p is a probability.

[1] = system: olfactory receptors of Aedes albopictus; test: Orientation tests in ElectroAntennogGraphy coupled with Gas Chromatography
Method: Orientation tests in ElectroAntennogGraphy coupled with Gas Chromatography were carried out.

acetylcholinesterase = details: cited from earlier work

SMILES: CC1CCC(C(C)(C)O)C(O)C1 (mixture of isomers) [Commercial cis/trans PMD 60/40, p-menthane-3,8-diol]
% Repellency (Aedes albopictus; 200 mg/m^2 (of PMD) in EtOH): 68 ± 15%

SMILES: CC1CCC(C(C)(C)O)C(O)C1 (mixture of isomers) [Commercial cis/trans PMD 75/25 derived from R citronellal] [p-menthane-3,8-diol]
% Repellency (Aedes albopictus; 200 mg/m^2 (of PMD) in EtOH): 24 ± 2%

SMILES: CC1CCC(C(C)(C)O)C(O)C1 (stereo not drawn) [Commercial cis PMD, p-menthane-3,8-diol]
% Repellency (Aedes albopictus; 200 mg/m^2 (of PMD) in EtOH): 64 ± 15%

SMILES: C=C(C)C1CCC(C)CC1O (stereo not drawn) [isopulegol, 5-methyl-2-prop-1-en-2-ylcyclohexan-1-ol]
effect of added compound on repellent activity of PMD (Aedes albopictus): may enhance the repellent activity of PMD

SMILES: CC1CCC(C(C)(C)O)C(O)C1 (stereo not drawn) [PMD, (2-hydroxypropan-2-yl)-5-methylcyclohexan-1-ol]
recognition in ElectroAntennogGraphy [1]: recognised at very low doses

SMILES: CC1CCC(C(C)(C)O)C(O)C1 (mixture of isomers) [Commercial cis/trans PMD 75/25 derived from S citronellal] [p-menthane-3,8-diol]
% Repellency (Aedes albopictus; 200 mg/m^2 (of PMD) in EtOH): 41 ± 3%

SMILES: CCN(CC)C(=O)c1cccc(C)c1 [DEET, N,N diethyl-meta-toluamide]
% Repellency (Aedes albopictus; 110 mg/m^2 in EtOH): 63 ± 5% and 49 ± 4% and 68 ± 10% and 43 ± 1% and 41 ± 6% and 63 ± 8% and 73 ± 7% and 28 ± 8% | acetylcholinesterase inhibition (acetylcholinesterase): inhibits

SMILES: CC1CCC(C(C)(C)O)C(O)C1 (racemic) [Commercial cis/trans PMD 75/25, p-menthane-3,8-diol]
% Repellency (Aedes albopictus; 200 mg/m^2 (of PMD) in EtOH): 79 ± 4% and 59 ± 14% and 68 ± 2% and 55 ± 10% and 60 ± 5% and 65 ± 8% and 69 ± 13% and 63 ± 9% and 59 ± 9% and 56 ± 13% | % Repellency (Aedes albopictus; 200 mg/m^2 (of PMD) in EtOH, listed as Commercial cis/trans PMD 75/25 derived from RS citronellal (racemic mixture)): 34 ± 1% | ED 50 expressed as concentration (Aedes albopictus; concentration in EtOH tantamount to 200 mg/m^2): 20.36 mg/mL (≈ 118 mM) | ED 50 (median effective dose) (Aedes albopictus; dose deposited on skin): 200 mg/m^2

recognition in ElectroAntennogGraphy [1]: recognised at very low doses
SMILES: C=C1CC/C=C(\C)CC[C@@H]2[C@@H]1CC2(C)C [caryophyllene, (1R,4E,9S)-4,11,11-trimethyl-8-methylidenebicyclo[7.2.0]undec-4-ene]
effect of added compound on repellent activity of PMD (Aedes albopictus): enhances the repellent activity of PMD

SMILES: CC(C)=CCCC(C)CC1OC2CC(C)CCC2C(C)(C)O1 (stereo not drawn) [acetals]
effect of added compound on repellent activity of PMD (Aedes albopictus): enhance the repellent activity of PMD

recognition in ElectroAntennogGraphy [1]: recognised at very low doses
SMILES: CC(C)=CCCC(C)CCO (stereo not drawn) [citronellol, 3,7-dimethyloct-6-en-1-ol]

SMILES: CC(C)=CCCC(C)CC=O (stereo not drawn) [citronellal, 3,7-dimethyloct-6-en-1-al]
effect of added compound on repellent activity of PMD (Aedes albopictus): does not boost PMD activity

SMILES: CC1CCC(C(C)(C)O)C(O)C1 (stereo not drawn) [Commercial trans PMD, p-menthane-3,8-diol]
% Repellency (Aedes albopictus; 200 mg/m^2 (of PMD) in EtOH): 57 ± 6%
